From BindingDB's records for doi:10.1016/j.ejmech.2021.113336 (Zhejiang University, 2021) come the findings set out here.

A word on the IC50: it is the concentration that inhibits the measured activity by half.

The nature of the data set: Inhibition of P-glycoprotein in human MCF7/ADR cells assessed as reversal fold by measuring reduction in doxorubicin IC50 at 5 uM incubated for 48 hrs by CCK-8 assay. In general terms: Formazan colour is commonly taken as a measure of viable cells.

`COc1cc2c(cc1OC)CN(C(=O)c1ccc(-c3cc(OC)c(OC)c(OC)c3)o1)CC2`: the IC50 was 18.2 µM.
As to `CCCCOc1ccc(-c2ccc(C(=O)N3CCc4cc(OC)c(OC)cc4C3)o2)cc1`, the concentration for half-maximal inhibition (IC50) was 62.7 µM.
To `COc1ccc(-c2ccc(C(=O)N3CCc4cc(OC)c(OC)cc4C3)o2)cc1OC` belongs 9.7 µM; to `COc1cc2c(cc1OC)CN(C(=O)c1ccc(-c3ccc(OCC(C)C)cc3)o1)CC2`, 50.9 µM; to `COc1cc2c(cc1OC)CN(C(=O)c1ccc(-c3ccc4c(c3)OCO4)o1)CC2`, 8.4 µM.
To `COc1cc2c(cc1OC)CN(C(=O)c1ccc(-c3cccc(OC)c3OC)o1)CC2` belongs 15.1 µM; to `CCOc1ccc(-c2ccc(C(=O)N3CCc4cc(OC)c(OC)cc4C3)o2)cc1`, 15.4 µM.
For the compound `COc1ccc(OC)c(-c2ccc(C(=O)N3CCc4cc(OC)c(OC)cc4C3)o2)c1`, the concentration for half-maximal inhibition (IC50) turned out to be 18.8 µM.
Turning to `COc1cc2c(cc1OC)CN(C(=O)c1ccc(-c3ccc(OC(C)(C)C)cc3)o1)CC2`, the IC50 amounted to 62.7 µM.
On to `COc1cc2c(cc1OC)CN(C(=O)c1ccc(-c3ccc(OC(F)(F)F)cc3)o1)CC2`, for which the IC50 stood at 11.7 µM.
On to `CCCOc1ccc(-c2ccc(C(=O)N3CCc4cc(OC)c(OC)cc4C3)o2)cc1`, for which the 50% inhibitory concentration (IC50) came to 44.6 µM.
For `COc1cc(OC)cc(-c2ccc(C(=O)N3CCc4cc(OC)c(OC)cc4C3)o2)c1`, the half-inhibitory concentration (IC50) was determined as 19.8 µM.
`COc1cc2c(cc1OC)CN(C(=O)c1ccc(-c3ccc(SC(C)C)cc3)o1)CC2`: the half-inhibitory concentration (IC50) was determined as 64.4 µM.
Take `COc1ccc(-c2ccc(C(=O)N3CCc4cc(OC)c(OC)cc4C3)o2)cc1`: the IC50 was 9.1 µM.
For `COc1cc2c(cc1OC)CN(C(=O)c1ccc(-c3ccc(OC(C)C)cc3)o1)CC2` the value was 69.6 µM; for `COc1cc2c(cc1OC)CN(C(=O)c1ccc(-c3ccc(Oc4ccccc4)cc3)o1)CC2`, 42 µM; for `COc1ccc(-c2ccc(C(=O)N3CCc4cc(OC)c(OC)cc4C3)o2)c(OC)c1`, 18.3 µM.
As to `COc1cccc(-c2ccc(C(=O)N3CCc4cc(OC)c(OC)cc4C3)o2)c1`, the IC50 stood at 6.7 µM.
To `COc1cc2c(cc1OC)CN(C(=O)c1ccc(-c3ccccc3OC)o1)CC2` belongs 13.5 µM.
